The values that follow come from US9340590B2 (priority 2011, dated 2016).

Read-outs that look alike come from different tables or passages of the source. Positions of bridges follow the written chain, without caps; N, C: chain ends. Non-standard residues stand in square brackets, D forms with d. Residues, ends and D or L forms follow the SMILES beside them. 1Nal = N[C@@H](Cc1cccc2ccccc12)C(=O)O

The target in the assay is hNav1.7 (Homo sapiens, UniProt Q15858). Description: cell-based. To be noted: read-out: IWQ Use Nav1.7. The assay is classed as cell-based.
hNav1.7, sequence (Q15858 whole entry, looked up): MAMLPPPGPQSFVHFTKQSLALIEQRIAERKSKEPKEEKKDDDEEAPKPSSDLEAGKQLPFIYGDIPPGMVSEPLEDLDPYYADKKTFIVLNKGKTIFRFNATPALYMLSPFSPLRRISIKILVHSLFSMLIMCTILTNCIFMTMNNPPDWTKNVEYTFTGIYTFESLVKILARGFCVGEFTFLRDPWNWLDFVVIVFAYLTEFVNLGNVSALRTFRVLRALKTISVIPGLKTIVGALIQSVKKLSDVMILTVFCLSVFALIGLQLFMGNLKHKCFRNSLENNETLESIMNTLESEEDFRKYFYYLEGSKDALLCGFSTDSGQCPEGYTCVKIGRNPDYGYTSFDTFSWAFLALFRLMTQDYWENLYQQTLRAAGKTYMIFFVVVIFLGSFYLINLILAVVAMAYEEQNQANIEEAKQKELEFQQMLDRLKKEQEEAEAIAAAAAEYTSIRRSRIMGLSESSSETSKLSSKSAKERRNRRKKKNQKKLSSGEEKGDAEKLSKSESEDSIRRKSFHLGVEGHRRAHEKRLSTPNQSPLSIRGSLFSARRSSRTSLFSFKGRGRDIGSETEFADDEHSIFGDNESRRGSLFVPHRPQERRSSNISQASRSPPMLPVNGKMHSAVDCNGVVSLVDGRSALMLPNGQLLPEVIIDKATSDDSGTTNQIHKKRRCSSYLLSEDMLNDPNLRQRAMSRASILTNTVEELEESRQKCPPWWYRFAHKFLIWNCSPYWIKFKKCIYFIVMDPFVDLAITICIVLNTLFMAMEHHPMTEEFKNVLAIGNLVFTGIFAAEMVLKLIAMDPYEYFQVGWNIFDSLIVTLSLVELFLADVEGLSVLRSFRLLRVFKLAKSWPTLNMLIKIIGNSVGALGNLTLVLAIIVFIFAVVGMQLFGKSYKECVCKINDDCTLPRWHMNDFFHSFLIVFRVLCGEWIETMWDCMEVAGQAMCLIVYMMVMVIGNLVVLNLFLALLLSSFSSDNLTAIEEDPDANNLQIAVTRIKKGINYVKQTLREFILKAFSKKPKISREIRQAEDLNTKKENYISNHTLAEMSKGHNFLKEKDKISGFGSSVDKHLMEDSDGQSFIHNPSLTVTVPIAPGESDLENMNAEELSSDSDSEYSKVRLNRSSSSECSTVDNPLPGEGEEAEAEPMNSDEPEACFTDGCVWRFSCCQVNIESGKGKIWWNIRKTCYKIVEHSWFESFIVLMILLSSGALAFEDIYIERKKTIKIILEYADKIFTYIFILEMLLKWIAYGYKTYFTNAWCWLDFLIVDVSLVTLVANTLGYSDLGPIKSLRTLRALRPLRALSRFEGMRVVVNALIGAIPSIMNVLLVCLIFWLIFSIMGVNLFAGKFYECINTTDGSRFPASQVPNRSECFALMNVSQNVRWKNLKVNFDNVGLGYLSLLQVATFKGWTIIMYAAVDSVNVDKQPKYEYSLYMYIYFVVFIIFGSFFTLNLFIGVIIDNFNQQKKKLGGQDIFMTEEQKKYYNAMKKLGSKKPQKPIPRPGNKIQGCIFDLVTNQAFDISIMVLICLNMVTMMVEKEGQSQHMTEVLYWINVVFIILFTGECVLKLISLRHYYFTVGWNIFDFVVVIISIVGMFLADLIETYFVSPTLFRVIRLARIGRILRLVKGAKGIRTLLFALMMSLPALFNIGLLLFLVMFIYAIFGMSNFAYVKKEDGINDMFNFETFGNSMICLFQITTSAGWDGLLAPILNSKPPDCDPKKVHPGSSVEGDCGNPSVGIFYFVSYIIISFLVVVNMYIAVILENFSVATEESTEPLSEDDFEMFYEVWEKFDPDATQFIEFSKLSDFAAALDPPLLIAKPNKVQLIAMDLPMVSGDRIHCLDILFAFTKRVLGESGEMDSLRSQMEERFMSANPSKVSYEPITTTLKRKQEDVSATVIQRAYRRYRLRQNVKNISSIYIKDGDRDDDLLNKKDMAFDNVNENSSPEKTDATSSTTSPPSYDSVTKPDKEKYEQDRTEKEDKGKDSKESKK

As for `CC[C@H](C)[C@@H]1NC(=O)[C@@H]2CSSC[C@@H]3NC(=O)[C@H](CCCNC(=N)N)NC(=O)[C@H](CC(C)C)NC(=O)[C@H](CC(N)=O)NC(=O)[C@@H]4CCCN4C(=O)[C@H](CCCNC(=N)N)NC(=O)[C@H](CSSC[C@H](NC(=O)[C@@H](N)CC(=O)O)C(=O)N[C@@H](CC(C)C)C(=O)NCC(=O)N[C@@H](Cc4ccccc4)C(=O)N[C@@H](CCSC)C(=O)N[C@@H](CCCNC(=N)N)C(=O)N[C@@H](CCCCN)C(=O)N2)NC(=O)[C@H](CSSC[C@@H](C(=O)N[C@@H](CCCCN)C(=O)N[C@@H](Cc2ccc(O)cc2)C(=O)N[C@H](C(=O)N[C@@H](Cc2ccccc2)C(N)=O)C(C)C)NC(=O)[C@H](Cc2c[nH]c4ccccc24)NC(=O)[C@H](CCCCN)NC(=O)[C@H](Cc2c[nH]cn2)NC(=O)[C@H]([C@@H](C)O)NC(=O)[C@H](CCCNC(=N)N)NC(=O)[C@H](CO)NC3=O)NC(=O)[C@H](CCCCN)NC(=O)[C@H](CC(=O)O)NC(=O)[C@H](CC(N)=O)NC(=O)[C@H](CC(=O)O)NC(=O)[C@@H]2CCCN2C1=O` [compound 158] (H-DCLGFMRKCIPDNDKCCRPNLRCSRTHKWCKYVF-NH2; disulfide 2-17, 9-23, 16-30), the IC50 (IonWorks Quattro, Use) came to 60 nM.
In the case of `CC[C@H](C)[C@@H]1NC(=O)[C@@H]2CSSC[C@@H]3NC(=O)[C@H](C(C)C)NC(=O)[C@H](CC(C)C)NC(=O)[C@H](CC(N)=O)NC(=O)[C@@H]4CCCN4C(=O)[C@H](CCCNC(=N)N)NC(=O)[C@H](CSSC[C@H](NC(=O)[C@@H](N)CC(=O)O)C(=O)N[C@@H](CC(C)C)C(=O)NCC(=O)N[C@@H](Cc4ccccc4)C(=O)N[C@@H](CCSC)C(=O)N[C@@H](CCCNC(=N)N)C(=O)N[C@@H](CCCCN)C(=O)N2)NC(=O)[C@H](CSSC[C@@H](C(=O)N[C@@H](CCCCN)C(=O)N[C@@H](CCCNC(=N)N)C(=O)N[C@H](C(=O)N[C@@H](Cc2ccccc2)C(N)=O)C(C)C)NC(=O)[C@H](Cc2c[nH]c4ccccc24)NC(=O)[C@H](CCCCN)NC(=O)[C@H](Cc2c[nH]cn2)NC(=O)[C@H]([C@@H](C)O)NC(=O)[C@H](CCCNC(=N)N)NC(=O)[C@H](CO)NC3=O)NC(=O)[C@H](CCCCN)NC(=O)[C@H](CC(=O)O)NC(=O)[C@H](CC(N)=O)NC(=O)[C@H](CC(=O)O)NC(=O)[C@@H]2CCCN2C1=O` [compound 159] (H-DCLGFMRKCIPDNDKCCRPNLVCSRTHKWCKRVF-NH2; disulfide 2-17, 9-23, 16-30), the IC50 turned out to be 1020 nM.
In the case of `CC[C@H](C)[C@@H]1NC(=O)[C@@H]2CSSC[C@@H]3NC(=O)[C@H](C(C)C)NC(=O)[C@H](CC(C)C)NC(=O)[C@H](CC(N)=O)NC(=O)[C@@H]4CCCN4C(=O)[C@H](CCCNC(=N)N)NC(=O)[C@H](CSSC[C@H](NC(=O)[C@@H](N)CC(=O)O)C(=O)N[C@@H](CC(C)C)C(=O)NCC(=O)N[C@@H](Cc4ccccc4)C(=O)N[C@@H](CCSC)C(=O)N[C@@H](CCCNC(=N)N)C(=O)N[C@@H](CCCCN)C(=O)N2)NC(=O)[C@H](CSSC[C@@H](C(=O)N[C@@H](CCCCN)C(=O)N[C@@H](Cc2cccc4ccccc24)C(=O)N[C@H](C(=O)N[C@@H](Cc2ccccc2)C(N)=O)C(C)C)NC(=O)[C@H](Cc2c[nH]c4ccccc24)NC(=O)[C@H](CCCCN)NC(=O)[C@H](Cc2c[nH]cn2)NC(=O)[C@H]([C@@H](C)O)NC(=O)[C@H](CCCNC(=N)N)NC(=O)[C@H](CO)NC3=O)NC(=O)[C@H](CCCCN)NC(=O)[C@H](CC(=O)O)NC(=O)[C@H](CC(N)=O)NC(=O)[C@H](CC(=O)O)NC(=O)[C@@H]2CCCN2C1=O` [compound 167] (H-DCLGFMRKCIPDNDKCCRPNLVCSRTHKWCK[1Nal]VF-NH2; disulfide 2-17, 9-23, 16-30), the IC50 (Table 25, IonWorks Quattro, use, […]) came out at 4 nM.
Consider `CSCC[C@@H]1NC(=O)[C@H](Cc2ccccc2)NC(=O)CNC(=O)[C@H](CC(C)C)NC(=O)[C@@H](NC(=O)[C@@H](N)CC(=O)O)CSSC[C@@H]2NC(=O)[C@@H]3CSSC[C@@H](C(=O)N[C@@H](CCCCN)C(=O)N[C@@H](Cc4ccc(O)cc4)C(=O)N[C@H](C(=O)N[C@@H](Cc4ccccc4)C(N)=O)C(C)C)NC(=O)[C@H](Cc4c[nH]c5ccccc45)NC(=O)[C@H](CCCCN)NC(=O)[C@H](Cc4c[nH]cn4)NC(=O)[C@H]([C@@H](C)O)NC(=O)[C@H](CCCNC(=N)N)NC(=O)[C@H](CO)NC(=O)[C@H](CSSC[C@H](NC(=O)[C@H](CCCCN)NC(=O)[C@H](CCCNC(=N)N)NC1=O)C(=O)N[C@@H](Cc1ccc(O)cc1)C(=O)N1CCC[C@H]1C(=O)N[C@@H](CC(=O)O)C(=O)N[C@@H](CC(N)=O)C(=O)N[C@@H](CC(=O)O)C(=O)N[C@@H](CCCCN)C(=O)N3)NC(=O)[C@H](C(C)C)NC(=O)[C@H](CC(C)C)NC(=O)[C@H](CC(N)=O)NC(=O)[C@@H]1CCCN1C(=O)[C@H](CCCNC(=N)N)NC2=O` [compound 299] (H-DCLGFMRKCYPDNDKCCRPNLVCSRTHKWCKYVF-NH2; disulfide 2-17, 9-23, 16-30), for which the IC50 (IonWorks Quattro, Use) is 140 nM.
The same measure, in the same setting: for `CSCC[C@@H]1NC(=O)[C@H](Cc2ccccc2)NC(=O)CNC(=O)[C@H](CC(C)C)NC(=O)[C@@H](NC(=O)[C@@H](N)CC(=O)O)CSSC[C@@H]2NC(=O)[C@@H]3CSSC[C@@H](C(=O)N[C@@H](CCCCN)C(=O)N[C@@H](Cc4ccc(O)cc4)C(=O)N[C@H](C(=O)N[C@@H](Cc4ccccc4)C(N)=O)C(C)C)NC(=O)[C@H](Cc4c[nH]c5ccccc45)NC(=O)[C@H](CCCCN)NC(=O)[C@H](Cc4c[nH]cn4)NC(=O)[C@H]([C@@H](C)O)NC(=O)[C@H](CCCNC(=N)N)NC(=O)[C@H](CO)NC(=O)[C@H](CSSC[C@H](NC(=O)[C@H](CCCCN)NC(=O)[C@H](CCCNC(=N)N)NC1=O)C(=O)N[C@@H](C(C)C)C(=O)N1CCC[C@H]1C(=O)N[C@@H](CC(=O)O)C(=O)N[C@@H](CC(N)=O)C(=O)N[C@@H](CC(=O)O)C(=O)N[C@@H](CCCCN)C(=O)N3)NC(=O)[C@H](C(C)C)NC(=O)[C@H](CC(C)C)NC(=O)[C@H](CC(N)=O)NC(=O)[C@@H]1CCCN1C(=O)[C@H](CCCNC(=N)N)NC2=O` [compound 301] (H-DCLGFMRKCVPDNDKCCRPNLVCSRTHKWCKYVF-NH2; disulfide 2-17, 9-23, 16-30) the value was 100 nM; for `CSCC[C@@H]1NC(=O)[C@H](Cc2ccccc2)NC(=O)CNC(=O)[C@H](CC(C)C)NC(=O)[C@@H](NC(=O)[C@@H](N)CC(=O)O)CSSC[C@@H]2NC(=O)[C@@H]3CSSC[C@@H](C(=O)N[C@@H](CCCCN)C(=O)N[C@@H](Cc4ccc(O)cc4)C(=O)N[C@H](C(=O)N[C@@H](Cc4ccccc4)C(N)=O)C(C)C)NC(=O)[C@H](Cc4c[nH]c5ccccc45)NC(=O)[C@H](CCCCN)NC(=O)[C@H](Cc4c[nH]cn4)NC(=O)[C@H]([C@@H](C)O)NC(=O)[C@H](CCCNC(=N)N)NC(=O)[C@H](CO)NC(=O)[C@H](CSSC[C@H](NC(=O)[C@H](CCCCN)NC(=O)[C@H](CCCNC(=N)N)NC1=O)C(=O)N[C@@H](Cc1ccccc1)C(=O)N1CCC[C@H]1C(=O)N[C@@H](CC(=O)O)C(=O)N[C@@H](CC(N)=O)C(=O)N[C@@H](CC(=O)O)C(=O)N[C@@H](CCCCN)C(=O)N3)NC(=O)[C@H](C(C)C)NC(=O)[C@H](CC(C)C)NC(=O)[C@H](CC(N)=O)NC(=O)[C@@H]1CCCN1C(=O)[C@H](CCCNC(=N)N)NC2=O` [compound 302] (H-DCLGFMRKCFPDNDKCCRPNLVCSRTHKWCKYVF-NH2; disulfide 2-17, 9-23, 16-30), 110 nM; for `CSCC[C@@H]1NC(=O)[C@H](Cc2ccccc2)NC(=O)CNC(=O)[C@H](CC(C)C)NC(=O)[C@@H](NC(=O)[C@@H](N)CC(=O)O)CSSC[C@@H]2NC(=O)[C@@H]3CSSC[C@@H](C(=O)N[C@@H](CCCCN)C(=O)N[C@@H](Cc4ccc(O)cc4)C(=O)N[C@H](C(=O)N[C@@H](Cc4ccccc4)C(N)=O)C(C)C)NC(=O)[C@H](Cc4c[nH]c5ccccc45)NC(=O)[C@H](CCCCN)NC(=O)[C@H](Cc4c[nH]cn4)NC(=O)[C@H]([C@@H](C)O)NC(=O)[C@H](CCCNC(=N)N)NC(=O)[C@H](CO)NC(=O)[C@H](CSSC[C@H](NC(=O)[C@H](CCCCN)NC(=O)[C@H](CCCNC(=N)N)NC1=O)C(=O)N[C@@H](Cc1c[nH]cn1)C(=O)N1CCC[C@H]1C(=O)N[C@@H](CC(=O)O)C(=O)N[C@@H](CC(N)=O)C(=O)N[C@@H](CC(=O)O)C(=O)N[C@@H](CCCCN)C(=O)N3)NC(=O)[C@H](C(C)C)NC(=O)[C@H](CC(C)C)NC(=O)[C@H](CC(N)=O)NC(=O)[C@@H]1CCCN1C(=O)[C@H](CCCNC(=N)N)NC2=O` [compound 304] (H-DCLGFMRKCHPDNDKCCRPNLVCSRTHKWCKYVF-NH2; disulfide 2-17, 9-23, 16-30), 50 nM.
On the same count and under the same terms, for `CSCC[C@@H]1NC(=O)[C@H](Cc2ccccc2)NC(=O)CNC(=O)[C@H](CC(C)C)NC(=O)[C@@H](NC(=O)[C@@H](N)CC(=O)O)CSSC[C@@H]2NC(=O)[C@@H]3CSSC[C@@H](C(=O)N[C@@H](CCCCN)C(=O)N[C@@H](Cc4ccc(O)cc4)C(=O)N[C@H](C(=O)N[C@@H](Cc4ccccc4)C(N)=O)C(C)C)NC(=O)[C@H](Cc4c[nH]c5ccccc45)NC(=O)[C@H](CCCCN)NC(=O)[C@H](Cc4c[nH]cn4)NC(=O)[C@H]([C@@H](C)O)NC(=O)[C@H](CCCNC(=N)N)NC(=O)[C@H](CO)NC(=O)[C@H](CSSC[C@H](NC(=O)[C@H](CCCCN)NC(=O)[C@H](CCCNC(=N)N)NC1=O)C(=O)N[C@@H](CO)C(=O)N1CCC[C@H]1C(=O)N[C@@H](CC(=O)O)C(=O)N[C@@H](CC(N)=O)C(=O)N[C@@H](CC(=O)O)C(=O)N[C@@H](CCCCN)C(=O)N3)NC(=O)[C@H](C(C)C)NC(=O)[C@H](CC(C)C)NC(=O)[C@H](CC(N)=O)NC(=O)[C@@H]1CCCN1C(=O)[C@H](CCCNC(=N)N)NC2=O` [compound 305] (H-DCLGFMRKCSPDNDKCCRPNLVCSRTHKWCKYVF-NH2; disulfide 2-17, 9-23, 16-30) the value was 50 nM.
